Source: US5610171A, “Inhibition of metastasis in patients having cancer with pyridyloxazole-2-ones” (Merrell Pharmaceuticals Inc., priority 1995, dated 1997)
Entries after “also recorded” stand apart in the source; their conditions may differ. Where two headings read alike, the source gives them in different places.

Legend:
B16F1 cells = assay: Colony forming (clonogenic) assay of B16F1 cells; type: cell-based, murine; conditions: 24 hours
Method: One hundred viable cells, as determined by trypan blue exclusion, were plated per 35 mm dish in MEM and incubated for 24 hours at 37° C. Next, 4-propyl-5(4-pyridinyl)-2(3H)-oxazolone was added and incubation continued for an additional 24 hours, after which the dishes were washed twice with Hank's Balanced Salt Solution (HBSS) and replenished with MEM. Ten days later, colonies with a diameter of 2 mm or greater were counted.
B16F1 cells (10^2) were plated and incubated for 24
hours at 37° C. Next, 4-propyl-5(4-pyridinyl)-2(3H)-
oxazolone (compound 1) was added and incubation continued
for an additional 24 hours at which time the drug was
removed. Ten days later, colonies greater than 2 mm in […]

cytosolic PKC = assay: PKC activity in cytosol of pretreated B16F1 cells; type: cell-based, murine; conditions: 24 hours
Method: (§1) Protein Kinase C Preparation
(§2) Cytostolic and membrane-associated PKC was prepared as described in Thomas, T. P., Gopalakrishna, R. and Anderson, W. B. Hormone- and tumor promoter-induced activation of membrane association of protein kinase C in intact cells, Methodsin Enzymology, 141: 399-411, 1987. Sub-confluent B16F1 cultures (4×10^7 cells total) were washed twice with phosphate buffered saline (PBS), pH 7.2 and then twice with buffer A (20 mM Tris, pH 7.5, 2 mM EDTA, 0.5 mM EGTA, […], 2 mM phenylmethylsulfonyl fluoride (PMSF), and 2 μg/ml leupeptin). Cells were scraped from the plates in buffer A, homogenized (40 strokes) and sedimented by centrifugation for 1 hour at 100,000 g. The cytosol was stored on ice while the particulate fraction was washed with buffer B (20 mM Tris, pH 7.2, 2 mM EDTA, 0.5 mM EGTA, and 2 mM (PMSF). The membranes were resuspended with buffer B and homogenized with 10 strokes. Nonidet P-40 (1% final concentration) was added and the mixture was incubated for 30 minutes at 4° C. in a rotating mixer. Nonsolubilized material was removed by centrifugation for 10 minutes at 1400 g. Cytostolic and membrane-bound PKC was partially purified by chromatography over 1 ml columns of DE-52 (Whatman) equilibrated with buffer B. The enzyme was applied to the column and washed with 2×3 ml buffer B. Elution of PKC was then effected by the addition of 2 ml buffer B containing 100 mM NaCl.
PKC was quantitated as described in Thomas et al., ibid. The assay contained 20 mM Tris (pH 7.5), 0.75 mM CaCl, 10 mM magnesium acetate, […] histone III-S, 0.25 μg/ml leupeptin, 100 μM [gamma-^32 p]-ATP (120 cpm/pmol), 0.96 μg/ml phosphatidylserine, and 0.0064 μg/ml 1,2-diolein in a total assay volume of 250 μl. Blanks contained no calcium or phospholipids. Incubation was for 5 minutes at 30° C. at which point the reaction was terminated by the addition of 1 ml 25% trichloroacetic acid (TCA). […]
(§3) then prepared and its activity was measured as described in […]

membrane-associated PKC = assay: PKC activity in membranes of pretreated B16F1 cells; type: cell-based, murine; conditions: 24 hours
Method: as §1, §2
PKC was quantitated as described in Thomas et al., ibid. The assay contained 20 mM Tris (pH 7.5), 0.75 mM CaCl, 10 mM magnesium acetate, […] histone III-S, 0.25 μg/ml leupeptin, 100 μM [gamma-^32 p]-ATP (120 cpm/pmol), 0.96 μg/ml phosphatidylserine, and 0.0064 μg/ml 1,2-diolein in a total assay volume of 250 μl. Blanks contained no calcium or phospholipids. Incubation was for 5 minutes at 30° C. at which point the reaction was terminated by the addition of 1 ml 25% trichloroacetic acid (TCA). Samples were applied to Whatman GF/B filters, the tube rinsed twice with 5% TCA and the filter then washed 5 times with 5% TCA.
B16F1 cells were incubated with 4-propyl-5(4-
pyridinyl)-2(3H)-oxazolone for 24 hours at 37° C. PKC was
as §3

[1] = system: B16F1 cells / human umbilical vein endothelial cells (HUVEC); assay: Adhesion of B16F1 melanoma cells to endothelial cells (HUVEC); type: cell-based, murine B16F1 cells; human HUVEC; conditions: for Adherent B16F1 Cells, Mean +/- SE / activity at 50 µM: 50 μM, 24 hours treatment; for activity at 50 µM: Mus musculus, read-out: B16F1 cells adhered expressed as percent of control
Method: Adhesion of Tumor Cells to Endothelial Cells
Round 15 mm Thermanox tissue culture cover slips from Lux were placed in Corning 12-well, 22 mm diameter tissue culture clusters. HUVEC (2×10^6) were added to each well and grown to confluency. Sub-confluent B16F1 cells were labeled with 1 μCi/ml [^3 H]-thymidine (New England Nuclear, 78.5 Ci/mmol) for 24 hours at 37° C.
In preparation for the adhesion assay, the tissue culture wells containing either HUVEC or no cells were blocked with MEM containing 20 mM HEPES and 1% BSA for 1 hour at 37° C. B16F1 cells were removed from the flasks as described above for adhesion to basement membrane proteins and diluted to a density of 2×10^5 viable cells/ml in MEM (viability determined by trypan blue exclusion).
Blocking solution was aspirated from the wells and 1 ml of cells were added per well and incubated at 37° C. Nonadherent cells were washed from coverslips as described in Wright, P. S., Cross-Doersen, D., McCann, P. P. and Bitonti, A. J., Plasmodium falciparum: a rapid assay for cytoadherence of [^3 H]-hypoxanthine-labeled infected erythrocytes to human melanoma cells, Exp. Parasitol., 71: 346-349, 1990. Coverslips were retrieved from the well with forceps and dipped 10 times into a beaker of 100 ml MEM. Coverslips were placed into scintillation vials and counted in 10 ml Beckman Ready Protein.
B16F1 cells were treated with 4-propyl-5(4-pyridinyl)-
(3H)-oxazolone for 24 hours at 37° C. Cells were then
harvested and added to wells containing confluent HUVEC
cells and incubated for the time indicated at 37° C. Details
are given in Materials and Methods.

laminin = assay: Adhesion of B16F1 cells to laminin; type: cell-based; conditions: 24 hours
Method: (§4) Adhesion of B16F1 Cells to Basement Membrane Proteins
(§5) Adhesion proteins (2 μg/well) were coated onto Immulon I Removawells from Dynatech and incubated for 1 hour at 37° C. The wells were then blocked for 1 hour with 400 μl PBS, pH 7.2 containing 1% bovine serum albumin (BSA) at 37° C. Prior to addition of the cell suspension, the blocking solution was aspirated.
(§6) Sub-confluent cells were washed twice with HBSS and removed form flasks by incubation for 10 minutes at 37° C. with PBS (pH 7.2), 2 mM EDTA, and 1% BSA. The cells were washed twice with MEM containing 20 mM HEPES and 0.1% BSA and resuspended in the same medium to give a cell density of […].
(§7) Cells were added to wells in 50 μl (5×10^4 cells) and incubated at 37° C. The wells were aspirated and washed three times with 400 μl PBS (pH 7.2) containing 0.1% BSA. Wells were detached and counted in 5 ml Beckman Ready Protein. Blanks were not coated with protein but were blocked with BSA as described above.

fibronection = assay: Adhesion of B16F1 cells to fibronectin; type: cell-based; conditions: 24 hours
Method: as §4, §5, §6, §7

Compound: CCCc1[nH]c(=O)oc1-c1ccncc1 [Compound 1, 4-propyl-5(4-pyridinyl)-2(3H)-oxazolone]
- Colonies per dish, Mean +/- SE (B16F1 cells; 10 μM): 27 +/- 2 colonies per dish
- Colonies per dish, Mean +/- SE (B16F1 cells; 20 μM): 34 +/- 1 colonies per dish
- Colonies per dish, Mean +/- SE (B16F1 cells; 50 μM): 29 +/- 1 colonies per dish
- viability of treated cells (clonogenic assay) (B16F1 cells): equivalent to untreated cells
- PKC Activity, cytosol (cytosolic PKC; 5 μM): 7305 pmol per min per mg protein
- PKC Activity, cytosol (cytosolic PKC; 25 μM): 2485 pmol per min per mg protein
- PKC Activity, cytosol (cytosolic PKC; 50 μM): 3658 pmol per min per mg protein
- PKC Activity Ratio membrane/cytosol (membrane-associated PKC; 5 μM): 0.29
- PKC Activity, membrane (membrane-associated PKC; 5 μM): 2151 pmol per min per mg protein
- PKC Activity Ratio membrane/cytosol (membrane-associated PKC; 25 μM): 0.61
- PKC Activity, membrane (membrane-associated PKC; 25 μM): 1511 pmol per min per mg protein
- PKC Activity Ratio membrane/cytosol (membrane-associated PKC; 50 μM): 0.27
- PKC Activity, membrane (membrane-associated PKC; 50 μM): 1000 pmol per min per mg protein
- adherence to HUVEC [1]: decreased adhesion; also recorded: less adherent
- Adherent B16F1 Cells, Mean +/- SE ([1]; 5 min adhesion): 4,513 cells
- Adherent B16F1 Cells, Mean +/- SE ([1]; 10 min adhesion): 7,828 cells
- Adherent B16F1 Cells, Mean +/- SE ([1]; 20 min adhesion): 48,750 cells
- Adherent B16F1 Cells, Mean +/- SE ([1]; 30 min adhesion): 92,084 cells
- Adherent B16F1 Cells, Mean +/- SE ([1]; 60 min adhesion): 136,950 cells
- activity at 50 µM ([1]; B16-F1, 5 min, 5 min adhesion): 126%
- activity at 50 µM ([1]; B16-F1, 10 min, 10 min adhesion): 39%
- activity at 50 µM ([1]; B16-F1, 20 min, 20 min adhesion): 60%
- activity at 50 µM ([1]; B16-F1, 0.5 h, 30 min adhesion): 71%
- activity at 50 µM ([1]; B16-F1, 1 h, 60 min adhesion): 110%
- adherence to laminin (laminin): inhibited minimally or not at all
- adherence to fibronection (fibronection): inhibited minimally or not at all
